Source: patent publication US9296691B2, “Inhibitors of p75 receptor and their uses” (Horacio Uri Saragovi, priority 2010, dated 2016)

T1: p75-Fc (Homo sapiens, UniProt P08138)
T1 construct: purchased R&D
T1 sequence (P08138 29-250 limits assumed): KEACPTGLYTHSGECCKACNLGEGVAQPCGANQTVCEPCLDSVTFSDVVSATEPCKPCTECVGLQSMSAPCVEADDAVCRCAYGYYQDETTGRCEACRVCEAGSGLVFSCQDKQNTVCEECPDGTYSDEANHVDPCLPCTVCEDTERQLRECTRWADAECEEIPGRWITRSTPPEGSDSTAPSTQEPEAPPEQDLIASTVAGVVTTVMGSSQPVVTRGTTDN


Experiments:
anti-NGF mAb NGF30 = experiment: Competitive ELISA, anti-NGF mAb NGF30 binding to immobilized NGF (selectivity control); settings: for NGF30 binding AVERAGE: binding to immobilized NGF, no cpd = 100%, mAb NGF30 50 nM, as described for FIG. 1A
Protocol: (§1) The effect of compounds I-B and LM-24 on the binding between NGF and p75 was tested in competitive ELISA assays, where the antagonists prevent soluble p75 from binding to immobilized NGF. The selectivity of antagonism was evaluated by lack of effect upon NGF-TrkA or lack of effect between NGF and anti-NGF monoclonal antibody (mAb) NGF30 interactions (FIG. 1A).
(§2) Competitive ELISAs were performed as described (Saragovi et al., 1998). The procedure immobilized 50 ng/well NGF, or pro-NGF (Alomone Labs, Israel) onto polystyrene 96-well microtest plates, with washing and blocking with binding buffer (BB; phosphate buffered saline containing 0.5% bovine serum albumin). The following primary reagents in BB were added: recombinant chimeric p75-Fc or recombinant chimeric TrkA-Fc (R&D), or anti-NGF mAb NGF30 (Saragovi et al., 1998); each at 50 nM. The competitors I-B and the other test compounds (or control LM-24) were added at the indicated concentrations, and the plates were incubated for 45 minutes. After washing 3× in BB, HRP-conjugated secondary reagents (Sigma) were added for 30 min (goat anti-human Fc for p75-Fc and for TrkA-Fc; and goat anti-rat Ab for NGF30 mAb), and then wells were washed 3× in BB and 1× in PBS. Peroxidase activity was determined colorimetrically using the substrate TMB One Solution (Promega). The reaction was stopped with 0.5 N H2SO4 and the plates were read at 450 nm (Benchmark Plus, Bio-Rad). Assays were repeated n>4 times, with replicates of 4 wells each assay. […] Wells with no NGF immobilized but with all other reagents added were treated as background (<15% of maximal signals) and standardized to 0% binding.

TrkA-Fc = target: T2, TrkA-Fc (Homo sapiens, UniProt P04629); experiment: Competitive ELISA, TrkA-Fc binding to immobilized NGF (selectivity control); settings: for TrkA-Fc binding AVERAGE: binding to immobilized NGF, no cpd = 100%, TrkA-Fc 50 nM, as described for FIG. 1A
T2 construct: purchased R&D
T2 sequence (P04629 33-423 limits assumed): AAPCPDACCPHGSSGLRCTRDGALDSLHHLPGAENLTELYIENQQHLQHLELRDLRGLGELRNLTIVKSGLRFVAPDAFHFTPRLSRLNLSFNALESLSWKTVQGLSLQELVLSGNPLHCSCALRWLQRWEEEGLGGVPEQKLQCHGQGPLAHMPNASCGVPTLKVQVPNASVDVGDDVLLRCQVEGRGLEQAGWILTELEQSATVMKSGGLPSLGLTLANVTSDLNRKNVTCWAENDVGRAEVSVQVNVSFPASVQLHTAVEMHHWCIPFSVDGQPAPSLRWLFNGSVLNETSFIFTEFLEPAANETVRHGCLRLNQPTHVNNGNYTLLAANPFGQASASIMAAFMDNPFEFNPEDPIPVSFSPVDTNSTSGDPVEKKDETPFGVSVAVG
Protocol: as §1, §2

p75-Fc = target: T1, p75-Fc; experiment: Competitive ELISA, p75-Fc binding to immobilized NGF; settings: for remaining activity at 30 µM: 0.75 h, binding to immobilized NGF, no cpd = 100%, p75-Fc 50 nM, as described for FIG. 1A (compounds 30 μM), below 100% indicates inhibition
Protocol: as §1
The compound LM-24 has been reported by others (Massa et al., 2006). Binding studies were carried out with all the compounds using I-B as reference.
as §2

[1] = system: retinal ganglion cells (RGCs); experiment: ON axotomy model, quantification of surviving RGCs (fluorogold labeled); type: in vivo; settings: rat ON axotomy, one intravitreal injection 3 μg, day 14; contralateral normal eye = 100%; control axotomy 10%
Protocol: (§3) Wistar rats (female, 250-300 g; Charles River) were kept in a 12 hours dark-light cycle with food and water ad libitum. All animal manipulations were performed between 9 AM and 12 AM. Deep anesthesia was used during cauterization (induction of glaucoma), ON transection, fluorogold labeling, intraocular injection procedures, Optical Coherence Tomography measurements, and euthanasia (ketamine, xylazine, acepromazine injected intraperitoneally: 50/5/1 mg/kg, as per IACUC recommendations). For measuring IOP, light anesthesia was used (a gas mixture of Oxygen, 2% isofluorane mixture, at a rate of 2.5 liter/min, as per IACUC recommendations).
The ON axotomy model in the rat (Bai et al., 2010a) was used. […]
(§4) For studies in the glaucoma animal model the injections were performed at days 14 and 21 after cauterization. […] Thus, in this paradigm there is pre-existing damage for 14 days before treatment (measured at ˜8% RGC death (Shi et al., 2007; Shi et al., 2008)); and the treatments require long-lived efficacy in the constant presence of retinal stress due to high IOP. […]
(§5) Quantification of labeled RGCs was performed as reported (Shi et al., 2007; Shi et al., 2008). […] Pictures for each freshly flat-mounted retina were taken using a Zeiss fluorescence microscope (Carl Zeiss Meditec, Jena, Germany), with 12 pictures/retina at 20× magnification. […]

[2] = system: retinal ganglion cells (RGCs); experiment: Glaucoma (episcleral vein cauterization) model, quantification of surviving RGCs; type: in vivo; settings: rat glaucoma, intravitreal injections days 14 and 21, endpoint day 42 (FIG. 2D)
Protocol: as §3
The episcleral vein cauterization (EVC) model of rat (Shi et al., 2007; Shi et al., 2008) was used. […]
as §4, §5

[3] = system: NGI (NFL-GCL-IPL) retinal layers; experiment: ON axotomy model, retinal NGI thickness by FD-OCT; type: in vivo; settings: rat ON axotomy, 3 μg intravitreal immediately after axotomy, days 11 and 14, versus untreated axotomy
Protocol: Antagonists of p75NTR prevented loss of retinal structure after ON axotomy. The relative in vivo efficacy for I-B and LM-24 was tested using the ON axotomy model. A quantitative non-invasive structural endpoint, FD-OCT, was performed in the same animal over time to measure the integrity of the neuronal layers. We quantified the axons and fibers of the RGCs that contribute to the thickness of the Nerve Fiber Layer (NFL), the Ganglion Cell Layer (GCL), and the Inner Plexiform Layer (IPL), herein termed NGI. Maintenance of NGI structure correlates with RGC health (Bai et al., 2010a).
Wistar rats (female, 250-300 g; Charles River) were kept in a 12 hours dark-light cycle with food and water ad libitum. All animal manipulations were performed between 9 AM and 12 AM. […]
FD-OCT is a non-invasive method that allows time-kinetic studies in the same animal. […] In each B-scan the thickness of the NFL-GCL-IPL (NGI) was measured at four adjacent points at a distance 1.5 mm from the ON head. […]
as §4

nnr5 cells = experiment: Pro-NTF killing assay (MTT), nnr5 cells; type: cell-based; settings: 50 nM, 72 hours, p<0.05
Protocol: (§6) The effect of I-B on the pro-apoptotic function of pro-NGF or pro-BDNF was tested in functional MTT assays measuring cell metabolism (FIG. 1B).
(§7) Cells (5,000 cells/well) were cultured in 96-well plates (Falcon, Lincoln Park, N.J.) in normal culture media (RPMI1640, Hepes, Glutamine, 5% serum). Wells were supplemented with NGF, BDNF, pro-NGF, or pro-BDNF (Alomone Labs) (50 nM final), in the presence or absence of I-B (20 μM final). Wells containing all culture conditions but no cells were used as blanks. The growth/survival profile of the cells was quantified using MTT (Sigma) 72 hours after plating. Optical density readings of MTT were done in a Benchmark Plus microplate Spectrophotometer (BioRad) at 595 nm with blanks subtracted.

B104 cells = experiment: Pro-NTF killing assay (MTT), B104 cells; type: cell-based; settings: 50 nM, 72 hours, p<0.05
Protocol: as §6, §7

[4] = competitive ELISA, FIG. 1A, compound at 30 μM

TrkA-Fc binding AVERAGE (TrkA-Fc) [%]	remaining activity at 30 µM (p75-Fc) [%]	Molecule	other results
105	74	Cn1c(=O)c2c(ncn2CC(=O)NCCCC(F)(F)F)n(C)c1=O [I-A, 2-(1,3-dimethyl-2,6-dioxo-2,3-dihydro-1H-purin-7(6H)-yl)-N-(4,4,4-trifluorobutyl)acetamide]	NGF30 binding AVERAGE (anti-NGF mAb NGF30): 86%
91	73	Cn1c(=O)c2c(ncn2CC(=O)NCCC(F)(F)F)n(C)c1=O [I-F, 2-(1,3-dimethyl-2,6-dioxo-2,3-dihydro-1H-purin-7(6H)-yl)-N-(3,3,3-trifluoropropyl)acetamide]	–
99	62	Cn1c(=O)c2c(ncn2CC(=O)N(C(=O)NC2CCCCC2)C2CCCCC2)n(C)c1=O [I-G]	–
–	53	CC(C)NC(=O)N(C(=O)Cc1c[nH]c2ccccc12)C(C)C [I-Q, 2-(1H-indol-3-yl)-N-isopropyl-N-(isopropylcarbamoyl)acetamide]	–
–	59	CC(C)NC(=O)N(C(=O)CCc1c[nH]c2ccccc12)C(C)C [I-R, 3-(1H-indol-3-yl)-N-isopropyl-N-(isopropylcarbamoyl)propanamide]	–
–	56	Cc1ccc(NC(=O)N(C(=O)CCc2c[nH]c3ccccc23)c2ccc(C)cc2)cc1 [I-S, 3-(1H-indol-3-yl)-N-p-tolyl-N-(p-tolylcarbamoyl)propanamide]	–
116	69	Cn1c(=O)c2c(ncn2CC(=O)OCCCN)n(C)c1=O [II-D, 3′-Aminopropyl (1,3-dimethyl-2,6-dioxo-2,3-dihydro-1H-purin-7(6H)-yl)acetate]	NGF30 binding AVERAGE (anti-NGF mAb NGF30): 91%
94	56	Cn1c(=O)c2c(ncn2CC(=O)OCCCNC(=O)OCc2ccccc2)n(C)c1=O [II-E, 3′-(Benzyloxycarbonylamino)propyl (1,3-dimethyl-2,6-dioxo-2,3-dihydro-1H-purin-7(6H)-yl)acetate]	NGF30 binding AVERAGE (anti-NGF mAb NGF30): 89%
94	72	COC(=O)Cn1cnc2c1c(=O)n(C)c(=O)n2C [II-H]	–
–	83	CCCn1c(=O)c2c(ncn2CC(=O)OC)n(CCC)c1=O [II-N, Methyl 2-(2,6-dioxo-1,3-dipropyl-2,3-dihydro-1H-purin-7(6H)-yl)acetate]	–
–	–	CN(C)CCCNC(=O)Cn1cnc2c1c(=O)n(C)c(=O)n2C [LM-24, reference compound]	RGCs surviving [1]: 21%; prevention of RGC death [2]: significantly prevent the death of RGCs; preservation of NGI thickness (FD-OCT) [3]: very limited preservation of the NGI thickness; effect on mAb NGF30 binding to NGF (anti-NGF mAb NGF30; [4]): did not interfere; effect on binding of TrkA to NGF (TrkA-Fc; [4]): did not interfere; effect on NGF-p75NTR interaction (p75-Fc; [4]): antagonized NGF-p75NTR interactions selectively
–	–	Pro-NGF: precursor of nerve growth factor (Alomone Labs), pro-apoptotic p75 ligand	cell viability (MTT), growth factor alone (nnr5 cells): reduced the viability; cell viability (MTT), growth factor alone (B104 cells): reduced the viability
–	–	pro-BDNF: precursor of brain derived neurotrophic factor (Alomone Labs), pro-apoptotic p75 ligand (protein, UniProt P23560 19-247, looked up, pro-form, precursor of brain derived neurotrophic factor (Alomone Labs), pro-apoptotic p75 ligand) pro-form: APMKEANIRGQGGLAYPGVRTHGTLESVNGPKAGSRGLTSLADTFEHVIEELLDEDQKVRPNEENNKDADLYTSRVMLSSQVPLEPPLLFLLEEYKNYLDAANMSMRVRRHSDPARRGELSVCDSISEWVTAADKKTAVDMSGGTVTVLEKVPVSKGQLKQYFYETKCNPMGYTKEGCRGIDKRHWNSQCRTTQSYVRALTMDSKKRIGWRFIRIDTSCVCTLTIKRGR	cell viability (MTT), growth factor alone (nnr5 cells): reduced the viability; cell viability (MTT), growth factor alone (B104 cells): reduced the viability
